Earlier results as cited in PMC12006171, “Marsupial cathelicidins: characterization, antimicrobial activity and evolution in this unique mammalian lineage” (Frontiers in Immunology, 2025).
Where two headings read alike, the source gives them in different places.

Legend:
[1] = tested on: six bacteria (S. aureus, E. coli, P. aeruginosa; ATCC and clinical isolate); parameters: method as in 4 sources, ref Peel et al 2016 ||| ref Peel et al 2021 ||| ref Wang et al 2011 ||| ref Peel et al 2017; details: cited from earlier work
[2] = tested on: three fungi (Candida krusei, Candida parapsilosis, Candida albicans); parameters: method as in 4 sources, ref Peel et al 2016 ||| ref Peel et al 2021 ||| ref Wang et al 2011 ||| ref Peel et al 2017; details: cited from earlier work
[3] = mature peptide (MP), Y/N summary, ref Peel et al 2017
[4] = mature peptide, Y/N summary from earlier study, ref Peel et al 2021
[5] = mature peptide, Y/N summary from earlier study, ref Peel et al 2016

Sequence	Antibacterial (MIC <64ug/mL) [1, 3]	Antifungal (MIC <64ug/mL) [2, 3]	other results
PKQKNGSKNRRFRIGGYTMISMKQPRVQKAPYMEAL [ModoCath9]	N (Peel et al 2017) (Antibacterial (MIC <64ug/mL))	N (Peel et al 2017) (Antifungal (MIC <64ug/mL))	
NFIHQKYRILLDKYRKLQDIFSGSGDKV [PhciCath2]			Antibacterial (MIC <64ug/mL) [1, 4]: N (Peel et al 2021) (Antibacterial (MIC <64ug/mL)); Antifungal (MIC <64ug/mL) [2, 4]: N (Peel et al 2021) (Antifungal (MIC <64ug/mL))
KRMGIFHLFWAGLRKLGNLIKNKIQQGIENFLG [SahaCath3]			Antibacterial (MIC <64ug/mL) [1, 5]: N (Peel et al 2016) (Antibacterial (MIC <64ug/mL)); Antifungal (MIC <64ug/mL) [2, 5]: Y (Peel et al 2016) (Antifungal (MIC <64ug/mL))
SKTKRRSLLKRLGDGIRGFWNGFRGRK [ModoCath4]	Y (Peel et al 2017) (Antibacterial (MIC <64ug/mL))	Y (Peel et al 2017) (Antifungal (MIC <64ug/mL))	
LFPRRRKGSNKPGKYSVLFAAKPSVGKTPHILTI [PhciCath1]			Antibacterial (MIC <64ug/mL) [1, 4]: N (Peel et al 2021) (Antibacterial (MIC <64ug/mL)); Antifungal (MIC <64ug/mL) [2, 4]: N (Peel et al 2021) (Antifungal (MIC <64ug/mL))
APVTPAPPGFTTSSKKKGKKKLPYTVIFGRTDFP [ModoCath3]	N (Peel et al 2017) (Antibacterial (MIC <64ug/mL))	N (Peel et al 2017) (Antifungal (MIC <64ug/mL))	
PIRTKRRWKLIKKGGKIVKDLLTKNNIIILPGGNE [TaacCath1]	Y (Peel et al 2017) (Antibacterial (MIC <64ug/mL))	N (Peel et al 2017) (Antifungal (MIC <64ug/mL))	
